Results on three molecules are retold here after article PMC3572206 (Biomaterials, 2012).

pIC50: −log10 of the molar value.

As a reminder, the pIC50 is the negative decadic logarithm of the IC50, by convention in mol/L.

Experiment [1] relates to MDA-1986. The experiment is described as follows: Cytotoxicity. In kind it is cell-based, human. The conditions noted are these: read-out: IC50: MDA-1986; 72 hrs post-addition.
For experiment [2], the system named is MDA-MB-468. The experiment is described as follows: Cytotoxicity. The following applies: read-out: IC50: MDA-MB-468; 72 hrs post-addition. In kind it is cell-based, human.
Experiment [3] concerns MDA-1986 human head and neck squamous cell carcinoma xenografts.
The test system of experiment [4] is MDA-MB-231. The experiment is described as follows: Cytotoxicity. The conditions noted are these: read-out: IC50: MDA-MB-231; 72 hrs post-addition. The format is cell-based, human.
Experiment [5] deals with MDA-1986 cells. The experiment is described as follows: Nitric oxide release in vitro. In kind it is cell-based, human.

`CCOC(=O)N1CCN(/[N+]([O-])=N/Oc2ccc([N+](=O)[O-])cc2[N+](=O)[O-])CC1` [JS-K, O^2-(2,4-Dinitrophenyl) 1-[(4-ethoxycarbonyl)piperazin-1-yl]diazen-1-ium-1,2-diolate, reference compound]: the pIC50 in experiment [1] is 4.80; in experiment [2], 4.38. Besides, the “progressive disease (PD) rate” value in experiment [3] (10 mg/kg, Sugar-NO1 s.c., JS-K i.v.) is on record as 100%. The “animals euthanized (tumor size exceeding 1000 mm^3 or necrosis of the injection site on the tail)” value in experiment [3] (within 7 weeks) was determined as 100%.

For `O=[N+]([O-])c1ccc(ON=[N+]([O-])N2CCN(CCOCCO)CC2)c([N+](=O)[O-])c1` [NO1, O^2-(2,4-Dinitrophenyl) 1-{[4-(2-(2-hydroxyethoxy))ethyl]piperazin-1-yl} diazen-1-ium-1,2-diolate], the pIC50 is 4.49 in experiment [1], 4.59 in experiment [2] and 4.49 in experiment [4]. In experiment [5], the “increase in release half-life compared to JS-K” value was 1 fold.

Regarding “O^2-(2,4-Dinitrophenyl) 1-{[4-(2-hydroxy)ethyl]-3-methylpiperazin-1-yl}diazen-1-ium-1,2-diolate [NO2]”, the pIC50 in experiment [1] is 4.24; in experiment [2], 4.57.
